Measurements: patent publication US20040192665A1 (priority 2002, published 2004)

Columns and labels:
[1] = experiment 2, I.P. 8 mg/kg once per week
[2] = system: DU-145 human prostate tumor cells; test: DU-145 xenograft tumor growth in nude mice; assay type: in vivo, nude mice (nu/nu); conditions: experiment 2; I.P. 8 mg/kg once per week; after 5 treatments
Protocol: Cage were cleaned and bedding changed once weekly. Irradiated corn cob bedding was used. Animals were observed daily and clinical signs were noted.
Morbidity and mortality were monitored daily.
The dosage level was determined by exact body weight.
Five mice per treatment group were tested.
Animals were treated once per week for 5 weeks.

COc1cccc2c1C(=O)c1c(O)c3c(c(O)c1C2=O)C[C@@](O)(C(=O)CO)C[C@@H]3O[C@H]1C[C@H](N)[C@H](O)[C@H](C)O1 [doxorubicin]
animals survived ([1]; after 5 treatments): 3/6 | average group weight in the surviving animals, down by ([1]; after the 5th treatment): 27% | tumor volumes less compared to placebo-control tumors [2]: 4.4 fold
